Laboratory results published in US20020137929A1, “1 - (3-heterocyclylphenyl) isothiourea, -isourea, -guanidine and -amidine herbicidal agents” (Intellectual Property Department, BASF Aktiengesellschaft, priority 1998, published 2002).

Columns and labels:
[1] = system: TRZAWR (Wheat, Winter, cv Riband); experiment: Preemergence herbicidal evaluation; assay type: in vivo, Triticum aestivum; settings: preemergence, rated 4-5 weeks after treatment, 0-9 scale
In short: (§1)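 In this greenhouse assay, monocot and dicot seeds are planted in soil and treated prior to emergence with an aqueous acetone spray (about 0.0156-0.500 kg/ha). Plants are assessed visually against control on a 0-9 scale after 4-5 weeks.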

[2] = system: CYPIR (Rice Flatsedge); experiment: Preemergence weed control under flooded paddy conditions; assay type: in vivo, Cyperus iria; settings: rated 3-4 weeks after treatment
In short: (§2)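 Silt loam, seeds in top 0.5 cm; flood held 1.5-3 cm; test cpd as acetone/water 50/50 into flood water, ~0.0313-0.500 kg/ha a.i.; greenhouse 3-4 wk; visual 0-9 score vs control.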

[3] = system: SAGPY (Arrowhead (Pygmaea)); experiment: Postemergence weed control under flooded paddy conditions; assay type: in vivo, Sagittaria pygmaea; settings: postemergence weeds, rated 3 to 4 weeks after treatment
In short: (§3)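 With weeds 3 to 5 cm tall and rice at the 1.5 to 2.5 leaf stage, containers were flooded and water held 1.5 to 3 cm above soil. Compounds in 50/50 v/v aqueous/acetone went into the flood water at about 0.0313 to 0.500 kg/ha a.i. Effects were visually rated 0–9 against controls after three to four weeks in the greenhouse.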

[4] = system: ECHCG (Barnyardgrass); experiment: Preemergence herbicidal evaluation; assay type: in vivo, Echinochloa crus-galli; settings: preemergence, rated 4-5 weeks after treatment, 0-9 scale
In short: as §1

[5] = system: ORYSAT (Rice, Tebonnet); experiment: Postemergence herbicidal evaluation; assay type: in vivo, Oryza sativa, (L.) Tebonnet; settings: postemergence
In short: (§4)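 Each compound, dispersed in an acetone/water mix (50/50) carrying 0.5% TWEEN 20, is nozzle-sprayed at 40 psi on approximately two-week-old seedlings at about 0.0156–0.500 kg/ha. Plants are assessed 4–5 weeks afterward on a 0–9 scale relative to control; duplicate tests are averaged.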

[6] = system: SETVI (Foxtail, Green); experiment: Postemergence herbicidal evaluation; assay type: in vivo, Setaria viridis; settings: postemergence
In short: as §4

[7] = system: ECHORC (Watergrass (Calif.)); experiment: Preemergence weed control under flooded paddy conditions; assay type: in vivo, Echinochloa oryzoides; settings: rated 3-4 weeks after treatment
In short: as §2

[8] = system: CYPSE (Flatsedge); experiment: as above; assay type: in vivo, Cyperus serotinus; settings: rated 3-4 weeks after treatment
In short: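 First, seeds or propagules go into the top 0.5 cm of silt loam; next, water is held 1.5 to 3 cm over the soil; then compound (50/50 acetone/water) is pipetted into it at about 0.0313 to 0.500 kg/ha; finally plants are rated visually 0-9 after three to four weeks.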

[9] = system: CYPSE (Flatsedge); experiment: Postemergence weed control under flooded paddy conditions; assay type: in vivo, Cyperus serotinus; settings: postemergence weeds, rated 3 to 4 weeks after treatment
In short: as §3

[10] = system: ZEAMX (Corn, Field); experiment: Preemergence herbicidal evaluation; assay type: in vivo, Zea mays; settings: preemergence, rated 4-5 weeks after treatment, 0-9 scale
In short: as §1

[11] = system: ECHORC (Watergrass (Calif.)); experiment: Postemergence weed control under flooded paddy conditions; assay type: in vivo, Echinochloa oryzoides; settings: postemergence weeds, rated 3 to 4 weeks after treatment
In short: as §3

[12] = system: ZEAMX (Corn, Field); experiment: Postemergence herbicidal evaluation; assay type: in vivo, Zea mays; settings: postemergence
In short: as §4

[13] = system: SETVI (Foxtail, Green); experiment: Preemergence herbicidal evaluation; assay type: in vivo, Setaria viridis; settings: preemergence, rated 4-5 weeks after treatment, 0-9 scale
In short: as §1

[14] = system: CYPIR (Rice Flatsedge); experiment: Postemergence weed control under flooded paddy conditions; assay type: in vivo, Cyperus iria; settings: postemergence weeds, rated 3 to 4 weeks after treatment
In short: as §3

## C=CCN1C(=O)C(CC(N)=O)SC1=Nc1cc(-n2c(=O)cc(C(F)(F)F)n(C)c2=O)c(F)cc1Cl (centres unmarked) [Compound 99, 3-Allyl-2-{{2-chloro-5-[3,6-dihydro-3-methyl-2,6-dioxo-4-(trifluoromethyl)-1(2H)-pyrimidinyl]-4-fluorophenyl}imino}-4-oxo-5-thiazolidineacetamide]
[1]; 0.0156 kg/ha
  TRZAWR rating: 0.0
[1]; 0.0313 kg/ha
  TRZAWR rating: 0.0
[1]; 0.0625 kg/ha
  TRZAWR rating: 1.0
[1]; 0.1250 kg/ha
  TRZAWR rating: 1.0
[1]; 0.2500 kg/ha
  TRZAWR rating: 4.0
[1]; 0.5000 kg/ha
  TRZAWR rating: 5.0
[2]; 0.0313 kg/ha
  CYPIR herbicidal effect rating: 0.0
[2]; 0.0625 kg/ha
  CYPIR herbicidal effect rating: 0.0
[2]; 0.1250 kg/ha
  CYPIR herbicidal effect rating: 0.0
[2]; 0.2500 kg/ha
  CYPIR herbicidal effect rating: 0.0
[2]; 0.5000 kg/ha
  CYPIR herbicidal effect rating: 0.0
[3]; Rate 0.0313 kg/ha
  Herbicidal rating SAGPY: 0.0
[3]; Rate 0.0625 kg/ha
  Herbicidal rating SAGPY: 0.0
[3]; Rate 0.1250 kg/ha
  Herbicidal rating SAGPY: 3.0
[3]; Rate 0.2500 kg/ha
  Herbicidal rating SAGPY: 4.0
[3]; Rate 0.5000 kg/ha
  Herbicidal rating SAGPY: 4.0
[4]; 0.0156 kg/ha
  ECHCG rating: 0.0
[4]; 0.0313 kg/ha
  ECHCG rating: 0.0
[4]; 0.0625 kg/ha
  ECHCG rating: 0.0
[4]; 0.1250 kg/ha
  ECHCG rating: 1.0
[4]; 0.2500 kg/ha
  ECHCG rating: 1.0
[4]; 0.5000 kg/ha
  ECHCG rating: 7.0
[5]; rate 0.0156 kg/ha
  herbicidal rating ORYSAT: 4.0
[5]; rate 0.0313 kg/ha
  herbicidal rating ORYSAT: 4.5
[5]; rate 0.0625 kg/ha
  ORYSAT herbicidal rating: 5.5
[5]; rate 0.1250 kg/ha
  ORYSAT herbicidal rating: 6.5
[6]; rate 0.0156 kg/ha
  herbicidal rating SETVI: 6.0
[6]; rate 0.0313 kg/ha
  herbicidal rating SETVI: 7.0
[6]; rate 0.0625 kg/ha
  SETVI herbicidal rating: 9.0
[6]; rate 0.1250 kg/ha
  SETVI herbicidal rating: 8.0
[7]; 0.0313 kg/ha
  ECHORC herbicidal effect rating: 0.0
[7]; 0.0625 kg/ha
  ECHORC herbicidal effect rating: 0.0
[7]; 0.1250 kg/ha
  ECHORC herbicidal effect rating: 0.0
[7]; 0.2500 kg/ha
  ECHORC herbicidal effect rating: 0.0
[7]; 0.5000 kg/ha
  ECHORC herbicidal effect rating: 4.0
[8]; 0.0313 kg/ha
  CYPSE herbicidal effect rating: 0.0
[8]; 0.0625 kg/ha
  CYPSE herbicidal effect rating: 0.0
[8]; 0.1250 kg/ha
  CYPSE herbicidal effect rating: 0.0
[8]; 0.2500 kg/ha
  CYPSE herbicidal effect rating: 0.0
[8]; 0.5000 kg/ha
  CYPSE herbicidal effect rating: 0.0
[9]; Rate 0.0313 kg/ha
  Herbicidal rating CYPSE: 0.0
[9]; Rate 0.0625 kg/ha
  Herbicidal rating CYPSE: 0.0
[9]; Rate 0.1250 kg/ha
  Herbicidal rating CYPSE: 0.0
[9]; Rate 0.2500 kg/ha
  Herbicidal rating CYPSE: 0.0
[9]; Rate 0.5000 kg/ha
  Herbicidal rating CYPSE: 0.0
[10]; 0.0156 kg/ha
  ZEAMX rating: 0.0
[10]; 0.0313 kg/ha
  ZEAMX rating: 0.0
[10]; 0.0625 kg/ha
  ZEAMX rating: 1.0
[10]; 0.1250 kg/ha
  ZEAMX rating: 2.0
[10]; 0.2500 kg/ha
  ZEAMX rating: 6.0
[10]; 0.5000 kg/ha
  ZEAMX rating: 7.0
[11]; Rate 0.0313 kg/ha
  Herbicidal rating ECHORC: 0.0
[11]; Rate 0.0625 kg/ha
  Herbicidal rating ECHORC: 0.0
[11]; Rate 0.1250 kg/ha
  Herbicidal rating ECHORC: 0.0
[11]; Rate 0.2500 kg/ha
  Herbicidal rating ECHORC: 0.0
[11]; Rate 0.5000 kg/ha
  Herbicidal rating ECHORC: 4.0
[12]; rate 0.0156 kg/ha
  herbicidal rating ZEAMX: 5.0
[12]; rate 0.0313 kg/ha
  herbicidal rating ZEAMX: 6.0
[12]; rate 0.0625 kg/ha
  ZEAMX herbicidal rating: 7.5
[12]; rate 0.1250 kg/ha
  ZEAMX herbicidal rating: 8.0
[13]; 0.0156 kg/ha
  SETVI rating: 0.0
[13]; 0.0313 kg/ha
  SETVI rating: 1.0
[13]; 0.0625 kg/ha
  SETVI rating: 1.0
[13]; 0.1250 kg/ha
  SETVI rating: 6.0
[13]; 0.2500 kg/ha
  SETVI rating: 7.0
[13]; 0.5000 kg/ha
  SETVI rating: 9.0
[14]; Rate 0.0313 kg/ha
  Herbicidal rating CYPIR: 0.0
[14]; Rate 0.0625 kg/ha
  Herbicidal rating CYPIR: 0.0
[14]; Rate 0.1250 kg/ha
  Herbicidal rating CYPIR: 0.0
[14]; Rate 0.2500 kg/ha
  Herbicidal rating CYPIR: 0.0
[14]; Rate 0.5000 kg/ha
  Herbicidal rating CYPIR: 0.0
